# From patent US20230036854A1, “HETEROCYCLIC SPIRO-COMPOUNDS AS AM2 RECEPTOR INHIBITORS” (THE UNIVERSITY OF SHEFFIELD, priority 2018, published 2023)
# Molecular target: T1, AM2 receptor (1321N1 cells transfected with CALCRL+RAMP3) (Homo sapiens, UniProt O60896+Q16602)
# T1 construct: host or cells: 1321N1 cells
# Assay: AM2 receptor inhibition, LANCE cAMP agonist-antagonist competition assay
# Format: cell-based
# Conditions: inhibition of AM induced cAMP activation, read-out: AM2 D2 protocol: pIC50 (converted)
# Protocol: Compounds were assessed for their ability to inhibit ligand-induced elevations of cAMP, using the Perkin Elmer LANCE cAMP assay using commercially-available cells expressing a specific receptor of interest using the following general procedure:
# Compounds were prepared in dimethyl sulfoxide (DMSO—99.9% pure) (Sigma Aldrich, Cat #: D4540) added to powder stocks to produce a 20 mM solution (100% DMSO) that was sonicated at 37° C. for 10 minutes to fully dissolve the compounds. The 20 mM stocks were diluted further in DMSO to produce a 2 mM solution that was sonicated at 37° C. for 10 minutes. 2 mM stocks were dissolved in assay/stimulation buffer to produce a 400 μM solution that was sonicated at 37° C. for 10 minutes for all cAMP assays. All stocks were stored at −20° C. Then serial dilution (Dilution factor: 10) was performed to achieve the desire experimental concentrations.
# Competition assays were performed according to the manufactures instructions using LANCE® TR-FRET cAMP assay kit (Perkin Elmer, Cat #: AD0264). Serial dilutions (3 μl/well) of the molecules were plated in a 384-well OptiPlate (Perkin Elmer, Cat #: 6007299) in duplicates. Appropriate controls (100% stimulation: Forskolin and 0% stimulation: Vehicle control) (6 μl/well) were included in each plate for data normalization. Following the compound addition, 6 μl of G-protein coupled receptor overexpressing cells/Alexa Fluor antibody solution (1:100 dilution) was added in each well at a desired density of 2500cells/well. The overexpressing cell lines were purchased from DiscoveRx, Birmingham, UK. After spinning the plate at 1000 rpm for 1 minute and vortexing briefly, the cells were pre-incubated with the compounds for 30 minutes at room temperature (covered). Then 3 μl of the equivalent peptide ligand (EC50 dose) was added to all the wells except vehicle and forskolin controls. The plate were then spun down at 1000 rpm for 1 minute and once finished they were vortexed briefly and covered. Cells were stimulated in the presence of the ligands for 15 minutes at room temperature. After stimulation 12 μl of detection mix (Europium-Chelate streptavidin/biotinylated cAMP tracer solution) was added to all wells and incubated for 60 minutes at room temperature. The plate was then read on the Enspire multimode Plate reader (Perkin Elmer), at; 320/340 nm excitation and 615/665 nm emission was recorded.
# Assay/Stimulation Buffer (30 mL)—pH 7.4 • 28 mL Hank's Balanced salt solution (+MgCl2, +CaCl2)—(Thermo Fisher Cat #:14170112) • 150 μl HEPES (1M)—(Thermo Fisher Cat #:15630080) • 400 μl Stabilizer (DTPA) Purified BSA (7.5%)—(Perkin Elmer, Cat #: CR84-100)
# The ability of a compound to inhibit the AM induced cAMP activation in AM2 receptor-expressing cells (1321N1 cells transfected with CALCRL+RAMP3, sourced from DiscoverX catalogue number 95-0169C6) was assessed using the protocol above.
# T1 sequence (Q16602 23-461): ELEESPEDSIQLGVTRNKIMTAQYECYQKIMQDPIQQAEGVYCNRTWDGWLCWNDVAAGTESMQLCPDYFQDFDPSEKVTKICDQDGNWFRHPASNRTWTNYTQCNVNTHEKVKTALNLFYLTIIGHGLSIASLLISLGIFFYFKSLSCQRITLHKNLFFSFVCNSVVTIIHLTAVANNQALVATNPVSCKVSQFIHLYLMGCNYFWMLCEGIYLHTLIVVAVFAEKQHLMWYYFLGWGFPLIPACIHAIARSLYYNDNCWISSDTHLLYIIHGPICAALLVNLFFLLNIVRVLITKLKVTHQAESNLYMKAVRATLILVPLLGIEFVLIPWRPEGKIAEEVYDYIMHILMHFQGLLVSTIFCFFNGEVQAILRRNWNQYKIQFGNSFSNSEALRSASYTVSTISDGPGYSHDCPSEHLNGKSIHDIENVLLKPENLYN
# T1 sequence (O60896 24-148): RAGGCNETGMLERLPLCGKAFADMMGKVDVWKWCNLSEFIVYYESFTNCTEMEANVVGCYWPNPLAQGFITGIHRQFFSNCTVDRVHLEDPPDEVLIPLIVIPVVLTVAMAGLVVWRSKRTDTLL
row,Structure (SMILES),IC50 [nM]
1,"CCC1(C(=O)N(CC(=O)Nc2ccc3c(c2)C[C@@]2(C3)C(=O)Nc3ncccc32)Cc2ccccc2CNC)CCN(C(=O)C(C)(C)C(F)(F)F)CC1 [Example 98, (R)-4-Ethyl-N-(2-((methylamino)methyl)benzyl)-N-(2-oxo-2-((2′-oxo-1,1′,2′,3-tetrahydrospiro[indene-2,3′-pyrrolo[2,3-b]pyridin]-5-yl)amino)ethyl)-1-(3,3,3-trifluoro-2,2-dimethylpropanoyl)piperidine-4-carboxamide]",61.7
2,"CCC1(C(=O)N(CC(=O)Nc2ccc3c(c2)C[C@@]2(C3)C(=O)Nc3ncccc32)Cc2ccccc2CNC)CCN(C(=O)N2CC(C(F)(F)F)C2)CC1 [Example 112, (R)-4-Ethyl-N-(2-((methylamino)methyl)benzyl)-N-(2-oxo-2-((2′-oxo-1,1′,2′,3-tetrahydrospiro[indene-2,3′-pyrrolo[2,3-b]pyridin]-5-yl)amino)ethyl)-1-(3-(trifluoromethyl)azetidine-1-carbonyl)piperidine-4-carboxamide]",23.4
3,"CCC1(C(=O)N(CC(=O)Nc2ccc3c(c2)C[C@@]2(C3)C(=O)Nc3ncccc32)Cc2ccccc2CNC)CCN(C(=O)c2cc(C(C)(C)C)nn2C)CC1 [Example 92, (R)-1-(3-(tert-Butyl)-1-methyl-1H-pyrazole-5-carbonyl)-4-ethyl-N-(2-((methylamino)methyl)benzyl)-N-(2-oxo-2-((2′-oxo-1,1′,2′,3-tetrahydrospiro[indene-2,3′-pyrrolo[2,3-b]pyridin]-5-yl)amino)ethyl)piperidine-4-carboxamide]",13.2
4,"CNCc1ccccc1CN(CC(=O)Nc1ccc2c(c1)C[C@@]1(C2)C(=O)Nc2ncccc21)C(=O)C1(C)CCN(C(C)=O)C1 (stereo partly drawn) [Example 143, Acetyl-3-methyl-N-(2-((methylamino)methyl)benzyl)-N-(2-oxo-2-(((R)-2′-oxo-1,1′,2′,3-tetrahydrospiro[indene-2,3′-pyrrolo[2,3-b]pyridin]-5-yl)amino)ethyl)pyrrolidine-3-carboxamide]",51.3
5,"CNCc1ccccc1CN(CC(=O)Nc1ccc2c(c1)C[C@@]1(C2)C(=O)Nc2ncccc21)C(=O)C1(C)CCN(C(=O)c2cccnn2)CC1 [Example 26, (R)-4-Methyl-N-(2-((methylamino)methyl)benzyl)-N-(2-oxo-2-((2′-oxo-1,1′,2′,3-tetrahydrospiro[indene-2,3′-pyrrolo[2,3-b]pyridin]-5-yl)amino)ethyl)-1-(pyridazine-3-carbonyl) piperidine-4-carboxamide]",4.57
6,"CCC1(C(=O)N(CC(=O)Nc2ccc3c(c2)C[C@@]2(C3)C(=O)Nc3ncccc32)Cc2ccccc2CNC)CCN(C(=O)N2CCCC2)CC1 [Example 102, (R)-4-Ethyl-N-(2-((methylamino)methyl)benzyl)-N-(2-oxo-2-((2′-oxo-1,1′,2′,3-tetrahydrospiro[indene-2,3′-pyrrolo[2,3-b]pyridin]-5-yl)amino)ethyl)-1-(pyrrolidine-1-carbonyl)piperidine-4-carboxamide]",6.92
7,"CCC1(C(=O)N(CC(=O)Nc2ccc3c(c2)C[C@@]2(C3)C(=O)Nc3ncccc32)Cc2ccccc2CNC)CCN(S(=O)(=O)NC)CC1 [Example 117, (R)-4-Ethyl-N-(2-((methylamino)methyl)benzyl)-1-(N-methylsulfamoyl)-N-(2-oxo-2-((2′-oxo-1,1′,2′,3-tetrahydrospiro[indene-2,3′-pyrrolo[2,3-b]pyridin]-5-yl)amino)ethyl)piperidine-4-carboxamide]",4.57
8,"CNCc1ccccc1CN(CC(=O)Nc1ccc2c(c1)C[C@@]1(C2)C(=O)Nc2ncccc21)C(=O)C1(C)CCN(C(=O)c2cccc(C(=O)O)c2)CC1 [Example 33, (R)-3-(4-Methyl-4-((2-((methylamino)methyl)benzyl)(2-oxo-2-((2′-oxo-1,1′,2′,3-tetrahydrospiro[indene-2,3′-pyrrolo[2,3-b]pyridin]-5-yl)amino)ethyl)carbamoyl)piperidine-1-carbonyl)benzoic Acid]",15.1
9,"CNCc1ccccc1CN(CC(=O)Nc1ccc2c(c1)C[C@@]1(C2)C(=O)Nc2ncccc21)C(=O)C1(C)CCN(CC2CCNCC2)CC1 [Example 49, (R)-4-Methyl-N-(2-((methylamino)methyl)benzyl)-N-(2-oxo-2-((2′-oxo-1,1′,2′,3-tetrahydrospiro[indene-2,3′-pyrrolo[2,3-b]pyridin]-5-yl)amino)ethyl)-1-(piperidin-4-ylmethyl)piperidine-4-carboxamide]",1.55
10,"CCC1(C(=O)N(CC(=O)Nc2ccc3c(c2)C[C@@]2(C3)C(=O)Nc3ncccc32)Cc2ccccc2CNC)CCN(C(=O)N2CCC(C(F)(F)F)CC2)CC1 [Example 110, (R)-4-Ethyl-N-(2-((methylamino)methyl)benzyl)-N-(2-oxo-2-((2′-oxo-1,1′,2′,3-tetrahydrospiro[indene-2,3′-pyrrolo[2,3-b]pyridin]-5-yl)amino)ethyl)-1-(4-(trifluoromethyl)piperidine-1-carbonyl)piperidine-4-carboxamide]",93.3

# Other lines, results leading:
row,IC50 [nM],Structure (SMILES)
1,22.9,"CCC1(C(=O)N(CC(=O)Nc2ccc3c(c2)C[C@@]2(C3)C(=O)Nc3ncccc32)Cc2ccccc2CNC)CCN(C(=O)CN2CCOCC2)CC1 [Example 90, (R)-4-Ethyl-N-(2-((methylamino)methyl)benzyl)-1-(2-morpholinoacetyl)-N-(2-oxo-2-((2′-oxo-1,1′,2′,3-tetrahydrospiro[indene-2,3′-pyrrolo[2,3-b]pyridin]-5-yl)amino)ethyl)piperidine-4-carboxamide]"
2,11.7,"CCC1(C(=O)N(CC(=O)Nc2ccc3c(c2)C[C@@]2(C3)C(=O)Nc3ncccc32)Cc2ccccc2CNC)CCN(C(=O)N2CCC2)CC1 [Example 106, (R)-1-(Azetidine-1-carbonyl)-4-ethyl-N-(2-((methylamino)methyl)benzyl)-N-(2-oxo-2-((2′-oxo-1,1′,2′,3-tetrahydrospiro[indene-2,3′-pyrrolo[2,3-b]pyridin]-5-yl)amino)ethyl)piperidine-4-carboxamide]"
3,2.19,CCC1(C(=O)N(CC(=O)Nc2ccc3c(c2)C[C@@]2(C3)C(=O)Nc3ncccc32)Cc2ccccc2CNC)CCN(C(=O)C23CC(C2)C3)CC1 [Example 87]
4,6.92,"CCC1(C(=O)N(CC(=O)Nc2ccc3c(c2)C[C@@]2(C3)C(=O)Nc3ncccc32)Cc2ccccc2CN)CCN(C(C)=O)CC1 [Example 133, (R)-1-Acetyl-N-(2-(aminomethyl)benzyl)-4-ethyl-N-(2-oxo-2-((2′-oxo-1,1′,2′,3-tetrahydrospiro[indene-2,3′-pyrrolo[2,3-b]pyridin]-5-yl)amino)ethyl)piperidine-4-carboxamide]"
5,7.41,"CCC1(C(=O)N(CC(=O)Nc2ccc3c(c2)C[C@@]2(C3)C(=O)Nc3ncccc32)Cc2ccccc2CNC)CCN(C(=O)[C@@H](N)c2ccccc2)CC1 [Example 79, 1-((S)-2-Amino-2-phenylacetyl)-4-ethyl-N-(2-((methylamino)methyl)benzyl)-N-(2-oxo-2-(((R)-2′-oxo-1,1′,2′,3-tetrahydrospiro[indene-2,3′-pyrrolo[2,3-b]pyridin]-5-yl)amino)ethyl)piperidine-4-carboxamide]"
6,7.76,"CNCc1ccccc1CN(CC(=O)Nc1ccc2c(c1)C[C@@]1(C2)C(=O)Nc2ncccc21)C(=O)C1(C)CCNCC1 [Example 3, (R)-4-Methyl-N-(2-((methylamino)methyl)benzyl)-N-(2-oxo-2-((2′-oxo-1,1′,2′,3-tetrahydrospiro[indene-2,3′-pyrrolo[2,3-b]pyridin]-5-yl)amino)ethyl)piperidine-4-carboxamide]"
7,3.24,"CNCc1ccccc1CN(CC(=O)Nc1ccc2c(c1)C[C@@]1(C2)C(=O)Nc2ncccc21)C(=O)C1(C)CCN(C(=O)C(C)C)CC1 [Example 16, (R)-1-Isobutyryl-4-methyl-N-(2-((methylamino)methyl)benzyl)-N-(2-oxo-2-((2′-oxo-1,1′,2′,3-tetrahydrospiro[indene-2,3′-pyrrolo[2,3-b]pyridin]-5-yl)amino)ethyl)piperidine-4-carboxamide]"
